Key:
[1] = system: pSer376-SLP-76; test: Phosphorylation assay in human cell line (pSer376-SLP-76, capillary electrophoresis); assay type: cell-based; conditions: 0.5 h, Jurkat E6.1 cells overexpressing FLAG-tagged SLP-76, a-CD3 (OKT3) stimulation, 30 min at 37 °C; for activity at 10 µM: 10µM compound, read-out: % amount of pSer376-SLP-76 @ 10µM; for activity at 20 µM: 20µM compound, read-out: % amount of pSer376-SLP-76 @ 20µM
Procedure: Phosphorylation assays were carried out in Jurkat E6.1 cells from American Type Culture Collection (ATCC) stably overexpressing human FLAG-tagged SLP-76 (proprietary). Cultured cells were kept in RPMI 1640 medium supplemented with 1% FCS at a cell density of 2x 10e6/mL 24h prior compound testing. Starved cells were simultaneously treated with 350 ng/mL a-CD3 antibody (clone OKT3. ebioscience #16-0037-85. plate-bound) and test compound for 30 min at 37 °C. Applied compounds were tested at either fixed concentration of 10 µmol/L and 20 µmol/L or in a 8 point dose response titration of increase compound concentration with 10 nmol/L. 50 nmol/L. 100 nmol/L. 500 nmol/L. 1 µmol/L. 5 µmol/L. 10 µmol/L and 20 µmol/L in triplicates. The cells were washed once in phosphate-buffered saline (pH 7.4). Cells were lysed using a lysis buffer containing 50 mmol/L Tris-CI (pH 7.5). 150 mM NaCl. 2 mM EDTA. 1% Triton-X 100. 0.5 % Na-DOC. 0.1% SDS. 1/10 complete mini protease inhibitor cocktail (Roche #11836170001) and 1/10 PhosSTOP phosphatase inhibitor cocktail (Roche #04906837001). A total of 1.25 µg cell lysate was analyzed by capillary electrophoresis using the Peggy Sue™ System (proteinsimple® San Jose. CA USA) with a 12-230kDa sizebased master kit with split buffer / a-rabbit-HRP #PS-MK18 / a-mouse-HRP #PS-MK19 according to manufacture's protocol. Probe antibodies used were a rabbit monoclonal antibody supernatant raised against human phospho-Ser376-SLP-76 peptide (proprietary) and for mormalization an a-alpha-Tubulin. mouse monoclonal antibody (Sigma #T9026). As control for maximal effect (max control. which represent the maximally possible inhibition of pSer376-SLP-76 by a test compound) cells with no a-CD3 (clone OKT3. ebioscience #16-0037-85. plate-bound) and no test compound treatment were used. Cells with a-CD3 treatment only were used as negative control (min control. which represent the minimally possible inhibition of pSer376-SLP-76 by a test compound)
AUC values of each respective test sample were normalized using the AUC of housekeeping gene alpha-Tubulin and AUC of pSer376-SLP-76 of the min control. The percentage of the amount of pSer-SLP-76 in the treatment samples was calculated using the max control and min control values of the respective Peggy Sue™ run. Table 3: Measured % amount of pSer376-SLP-76 of compound

[2] = target: T1, MAP4K1 (Homo sapiens, UniProt Q92918); test: TR-FRET-based binding competition assay (Tracer 222, GST-fusion protein); conditions: inhibition of binding of Tracer 222 (15 nM) to GST-fusion protein (1 nM), 30 min at 22°C
T1 construct: A recombinant fusion protein of N-terminal GST and full-length human; made in house; host or cells: baculovirus-infected SF9 insect cells
Description: The ability of the compounds of the present invention to inhibit the binding of an Alexa647-labelled ATP-competitive kinase inhibitor to a Glutathione-S-transferase- (GST-) fusion protein was quantified employing the TR-FRET-based binding competition assay as described in the following paragraphs.
A recombinant fusion protein of N-terminal GST and full-length human , expressed by baculovirus infected SF9 insect cells and purified by Glutathione Sepharose affinity chromatography, was used as GST- fusion protein. Tracer 222 from Invitrogen (catalogue no. PR9198A) was used as Alexa647-labelled ATP-competitive kinase inhibitor. For the assay 50 nl of a 100fold concentrated solution of the test compound in DMSO was pipetted into either a black low volume 384well microtiter plate or a black 1536well microtiter plate (both Greiner Bio-One, Frickenhausen, Germany), 3 µl solution of Tracer 222 (25 nM => final concentration in 5 µl assay volume is 15 nM) in aqueous assay buffer [25 mM Tris/HCI pH 7.5, 10 mM MgCl2, 5 mM β-glycerolphosphate, 2.5 mM dithiothreitol, 0.5 mM ethylene glycol-bis(2-aminoethylether)-N,N,N',N'-tetraacetic acid [EGTA], 0.5 mM sodium orthovanadate, 0.01 % (w/v) bovine serum albumin [BSA], 0.005% (w/v) Pluronic F-127 (Sigma)] were added. Then the binding competition was started by the addition of 2 µl of a solution of the GST- fusion protein (2.5 nM => final conc. in the 5 µl assay volume is 1 nM) and of Anti-GST-Tb (1.25 nM => final conc. in the 5 µl assay volume is 0.5 nM), a Lumi4®-Tb Cryptate-conjugated anti-GST-antibody from Cisbio Bioassays (France), in assay buffer.
The resulting mixture was incubated 30 min at 22°C to allow the formation of a complex between the Tracer 222, the fusion protein and Anti-GST-Tb. Subsequently the amount of this complex was evaluated by measurement of the resonance energy transfer from the Tb-cryptate to the Tracer 222. Therefore, the fluorescence emissions at 620 nm and 665 nm after excitation at 350 nm were measured in a TR-FRET reader, e.g. a Pherastar (BMG Labtechnologies, Offenburg, Germany) or a Viewlux (Perkin-Elmer). The ratio of the emissions at 665 nm and at 622 nm was taken as the measure for the amount of the complex. The data were normalised (assay reaction without inhibitor = 0 % inhibition, all other assay components but GST- fusion protein = 100 % inhibition). […] Table 1: Measured IC50 values of compounds regarding inhibition

T1 sequence (Q92918 whole entry, the tested form may be a part): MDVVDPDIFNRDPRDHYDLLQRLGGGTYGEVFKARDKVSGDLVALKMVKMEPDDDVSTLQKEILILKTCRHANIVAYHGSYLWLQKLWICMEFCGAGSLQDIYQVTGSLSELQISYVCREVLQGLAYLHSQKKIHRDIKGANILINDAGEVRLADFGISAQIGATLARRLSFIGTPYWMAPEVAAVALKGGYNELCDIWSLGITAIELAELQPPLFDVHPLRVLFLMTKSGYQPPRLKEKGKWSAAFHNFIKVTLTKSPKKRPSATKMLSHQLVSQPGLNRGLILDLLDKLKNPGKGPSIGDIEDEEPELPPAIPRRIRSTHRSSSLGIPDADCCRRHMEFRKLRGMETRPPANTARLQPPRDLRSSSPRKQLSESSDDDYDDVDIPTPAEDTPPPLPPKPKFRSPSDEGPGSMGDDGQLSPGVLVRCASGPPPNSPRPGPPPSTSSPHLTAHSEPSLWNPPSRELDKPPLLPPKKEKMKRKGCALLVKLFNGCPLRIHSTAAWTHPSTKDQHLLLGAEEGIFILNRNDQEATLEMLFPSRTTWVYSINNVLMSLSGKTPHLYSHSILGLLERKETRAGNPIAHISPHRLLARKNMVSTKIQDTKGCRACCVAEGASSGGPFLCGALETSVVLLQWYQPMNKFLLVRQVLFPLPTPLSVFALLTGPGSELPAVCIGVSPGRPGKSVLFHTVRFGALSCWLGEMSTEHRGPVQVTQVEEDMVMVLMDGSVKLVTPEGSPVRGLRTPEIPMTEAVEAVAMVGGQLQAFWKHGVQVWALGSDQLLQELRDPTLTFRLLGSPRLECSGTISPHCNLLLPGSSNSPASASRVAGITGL

SMILES	activity at 10 µM [1] [%]	activity at 20 µM [1] [%]	IC50 [2] [nM]
O=C(NCCN1CCOCC1)Nc1ccc(Oc2ccnc3[nH]cc(C(F)(F)F)c23)c(C(F)(F)F)c1 [Example 1, 1-[2-(morpholin-4-yl)ethyl]-3-[3-(trifluoromethyl)-4-{[3-(trifluoromethyl)-1H-pyrrolo[2,3-b]pyridin-4-yl]oxy}phenyl]urea]	25.2	5.5	69.4
O=C(NCCCN1CCOCC1)Nc1ccc(Oc2ccnc3[nH]cc(C(F)(F)F)c23)c(C(F)(F)F)c1 [Example 2, 1-[3-(morpholin-4-yl)propyl]-3-[3-(trifluoromethyl)-4-{[3-(trifluoromethyl)-1H-pyrrolo[2,3-b]pyridin-4-yl]oxy}phenyl]urea]	25.1	6.5	56.2
NC(=O)Nc1ccc(Oc2ccnc3[nH]cc(C(F)(F)F)c23)c(C(F)(F)F)c1 [Example 3, 1-[3-(trifluoromethyl)-4-{[3-(trifluoromethyl)-1H-pyrrolo[2,3-b]pyridin-4-yl]oxy}phenyl]urea]	21	2.6	56.2
O=C(NCCCN1CCOCC1)Nc1cc(F)c(Oc2ccnc3[nH]cc(C(F)(F)F)c23)c(C(F)(F)F)c1 [Example 4, 1-[3-fluoro-5-(trifluoromethyl)-4-{[3-(trifluoromethyl)-1H-pyrrolo[2,3-b]pyridin-4-yl]oxy}phenyl]-3-[3-(morpholin-4-yl)propyl]urea]	17	< 1	65
O=C(NCCN1CCOCC1)Nc1cc(F)c(Oc2ccnc3[nH]cc(C(F)(F)F)c23)c(C(F)(F)F)c1 [Example 5, 1-[3-fluoro-5-(trifluoromethyl)-4-{[3-(trifluoromethyl)-1H-pyrrolo[2,3-b]pyridin-4-yl]oxy}phenyl]-3-[2-(morpholin-4-yl)ethyl]urea]	27.1	< 1	64.6
O=C(NCCCN1CCOCC1)Nc1ccc(Oc2ccnc3[nH]cc(Cl)c23)c(C(F)(F)F)c1 [Example 6, 1-{4-[(3-chloro-1H-pyrrolo[2,3-b]pyridin-4-yl)oxy]-3-(trifluoromethyl)phenyl}-3-[3-(morpholin-4-yl)propyl]urea]	69.9	29.5	158
O=C(NCCN1CCOCC1)Nc1ccc(Oc2ccnc3[nH]cc(Cl)c23)c(C(F)(F)F)c1 [Example 7, 1-{4-[(3-chloro-1H-pyrrolo[2,3-b]pyridin-4-yl)oxy]-3-(trifluoromethyl)phenyl}-3-[2-(morpholin-4-yl)ethyl]urea]	5.1	< 1	124
NC(=O)Nc1ccc(Oc2ccnc3[nH]cc(Cl)c23)c(C(F)(F)F)c1 [Example 8, 1-{4-[(3-chloro-1H-pyrrolo[2,3-b]pyridin-4-yl)oxy]-3-(trifluoromethyl)phenyl}urea]	92.7	73.6	188
O=C(Nc1ccc(Oc2ccnc3[nH]cc(Cl)c23)c(C(F)(F)F)c1)Nc1cccnn1 [Example 9, 1-{4-[(3-chloro-1H-pyrrolo[2,3-b]pyridin-4-yl)oxy]-3-(trifluoromethyl)phenyl}-3-pyridazin-3-ylurea]	–	–	1260
Cc1ncc(NC(=O)Nc2ccc(Oc3ccnc4[nH]cc(Cl)c34)c(C(F)(F)F)c2)cn1 [Example 10, 1-{4-[(3-chloro-1H-pyrrolo[2,3-b]pyridin-4-yl)oxy]-3-(trifluoromethyl)phenyl}-3-(2-methylpyrimidin-5-yl)urea]	15.9	< 1	171
COc1cc(NC(=O)NCCCN2CCOCC2)ccc1Oc1ccnc2[nH]cc(C(F)(F)F)c12 [Example 11, 1-(3-methoxy-4-{[3-(trifluoromethyl)-1H-pyrrolo[2,3-b]pyridin-4-yl]oxy}phenyl)-3-[3-(morpholin-4-yl)propyl]urea]	68.1	53.8	315
O=C(NCCCN1CCOCC1)Nc1ccc(Oc2ccnc3[nH]cc(C(F)(F)F)c23)c(OC(F)(F)F)c1 [Example 12, 1-[3-(morpholin-4-yl)propyl]-3-[3-(trifluoromethoxy)-4-{[3-(trifluoromethyl)-1H-pyrrolo[2,3-b]pyridin-4-yl]oxy}phenyl]urea]	61.8	23.9	469
O=C(NCCN1CCOCC1)Nc1ccc(Oc2ccnc3[nH]cc(C(F)(F)F)c23)c(OC(F)(F)F)c1 [Example 13, 1-[2-(morpholin-4-yl)ethyl]-3-[3-(trifluoromethoxy)-4-{[3-(trifluoromethyl)-1H-pyrrolo[2,3-b]pyridin-4-yl]oxy}phenyl]urea]	–	–	439

— EP3638670B1, “SUBSTITUTED PYRROLOPYRIDINE-DERIVATIVES AS MAP4K1 MODULATORS FOR THE TREATMENT OF CANCER DISEASES” (Bayer Pharma Aktiengesellschaft, priority 2017, dated 2018)
